In patent publication US20230203041A1, “ANTAGONISTS OF THE ADENOSINE A2A RECEPTOR” (AdoRx Therapeutics Limited, priority 2020, published 2023):
Where a name gives a salt, the structure may show the parent alone.

Columns and labels:
[1] = molecular target: T1, human Adenosine A2b receptor (Homo sapiens, UniProt P29275); assay: Adenosine receptor TR-FRET binding assay (CA200645 displacement), A2b; conditions: 30 nM CA200645, CHO cell membranes, 2 hours at room temperature
T1 construct: expressed in transfected cells; host or cells: CHO cell membranes
T1 sequence (P29275 1-332): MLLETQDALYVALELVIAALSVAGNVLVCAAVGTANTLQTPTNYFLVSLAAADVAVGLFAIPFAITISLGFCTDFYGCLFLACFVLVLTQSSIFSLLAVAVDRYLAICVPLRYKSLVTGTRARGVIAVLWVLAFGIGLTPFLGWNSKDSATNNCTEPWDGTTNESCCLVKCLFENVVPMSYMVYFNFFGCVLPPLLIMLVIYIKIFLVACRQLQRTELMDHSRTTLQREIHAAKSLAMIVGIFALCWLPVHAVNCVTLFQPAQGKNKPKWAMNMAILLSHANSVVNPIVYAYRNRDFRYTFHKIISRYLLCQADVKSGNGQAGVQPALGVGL
Method: (§1) All FRET binding experiments were conducted at room temperature in white 384-well plates, in assay binding buffer containing 1×LabMed (Cisbio, France), 100 μg/mL saponin, 1% DMSO and 0.02% pluronic acid. Binding of the fluorescently labelled Adenosine receptor antagonist XAC (CA200645, FRET acceptor) to terbium-labelled A1, A2a, A2b and A3 adenosine receptors (FRET donors) was detected by time-resolved FRET due to the close proximity of the donor and acceptor in a binding event. To investigate the ability of unlabelled test compounds to bind to Adenosine A1, A2a, A2b and A3 receptors, dose response curves were constructed that determined the ability of a range of concentrations to inhibit the binding of 30 nM CA200645 to the A2b receptor and 100 nM CA200645 to the A1, A2a, and A3 receptor.
(§2) Serial dilution (1:3 dilutions) of test compounds in neat DMSO and transfer of a 400 nL sample of test compound into the assay plate was carried out using the Mosquito (TTP Labtech, UK). The compound samples were incubated for 2 hours at room temperature with a fixed concentration of CA200645 defined for each receptor (see above) and CHO cell membranes containing the human Adenosine A1 (0.5 μg/well), A2a (0.3 μg/well), A2b (1 μg/well) or A3 (1 μg/well) receptor in 40 μL of assay buffer. Total and non-specific binding of CA200645 was determined in the absence and presence of 10 μM XAC, respectively. Following 2 hours incubation, the level of CA200645 binding was detected on a Pherastar FSX (BMG Labtech, Germany) using standard TR-FRET settings. The terbium donor was excited with three laser flashes at a wavelength of 337 nm, and donor and acceptor emission was detected at 620 nm and 665 nm wavelengths, respectively. FRET ratios were obtained by multiplying the acceptor/donor ratio value by 10,000. Specific binding was determined by subtracting the non-specific binding FRET ratio from the total binding FRET ratio. Compound IC50 curves were analysed using GraphPad Prism 7.0 (GraphPad, USA) and Ki affinity values were determined from the obtained IC50 values using the method of Cheng and Prusoff.

[2] = molecular target: T2, human Adenosine A2a receptor (Homo sapiens, UniProt P29274); assay: Adenosine receptor TR-FRET binding assay (CA200645 displacement), A2a; conditions: 100 nM CA200645, CHO cell membranes, 2 hours at room temperature
T2 construct: expressed in transfected cells; host or cells: CHO cell membranes
T2 sequence (P29274 whole entry): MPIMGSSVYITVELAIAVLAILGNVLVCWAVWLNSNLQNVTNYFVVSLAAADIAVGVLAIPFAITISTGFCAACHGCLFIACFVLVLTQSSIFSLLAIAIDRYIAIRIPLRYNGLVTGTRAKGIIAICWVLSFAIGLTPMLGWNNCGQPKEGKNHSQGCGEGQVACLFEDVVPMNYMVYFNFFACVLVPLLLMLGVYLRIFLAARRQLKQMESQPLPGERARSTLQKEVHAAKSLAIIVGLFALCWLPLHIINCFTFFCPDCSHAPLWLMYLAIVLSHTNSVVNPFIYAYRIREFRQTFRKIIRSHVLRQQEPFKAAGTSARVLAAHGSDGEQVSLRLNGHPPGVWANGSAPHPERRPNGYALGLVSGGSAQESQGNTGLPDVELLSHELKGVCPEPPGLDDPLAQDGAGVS

[3] = molecular target: T3, human Adenosine A3 receptor (Homo sapiens, UniProt P0DMS8); assay: Adenosine receptor TR-FRET binding assay (CA200645 displacement), A3
T3 sequence (P0DMS8 1-318): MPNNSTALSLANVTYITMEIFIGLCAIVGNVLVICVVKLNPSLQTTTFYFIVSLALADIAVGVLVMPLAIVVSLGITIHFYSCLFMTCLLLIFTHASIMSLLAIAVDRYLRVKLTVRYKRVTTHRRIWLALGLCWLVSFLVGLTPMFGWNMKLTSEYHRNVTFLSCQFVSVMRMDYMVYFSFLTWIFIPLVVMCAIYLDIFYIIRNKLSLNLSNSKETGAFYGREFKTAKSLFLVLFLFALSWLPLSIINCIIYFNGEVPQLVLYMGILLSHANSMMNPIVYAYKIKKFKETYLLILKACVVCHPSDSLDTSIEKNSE

[4] = molecular target: T4, human Adenosine A1 receptor (Homo sapiens, UniProt P30542); assay: Adenosine receptor TR-FRET binding assay (CA200645 displacement), A1
T4 sequence (P30542 1-326): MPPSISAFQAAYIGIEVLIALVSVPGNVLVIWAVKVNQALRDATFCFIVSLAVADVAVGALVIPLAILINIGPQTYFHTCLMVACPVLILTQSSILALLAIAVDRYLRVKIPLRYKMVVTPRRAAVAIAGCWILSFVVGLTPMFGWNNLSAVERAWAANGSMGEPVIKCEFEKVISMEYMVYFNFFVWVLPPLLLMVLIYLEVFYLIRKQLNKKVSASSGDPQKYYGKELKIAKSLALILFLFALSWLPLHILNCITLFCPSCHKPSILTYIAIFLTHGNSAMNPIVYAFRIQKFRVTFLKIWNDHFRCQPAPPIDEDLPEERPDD
Method: as §1, §2

Row | Compound | Ki [1] | Ki [2] | Ki [3] | Ki [4]
1 | Cc1cc(-c2c(-c3cccc(C#N)c3)nn3ccc(C(=O)NC4CN(C)C4)nc23)cc(Cl)n1 [Example 6.16, 3-(2-Chloro-6-methyl-4-pyridyl)-2-(3-cyanophenyl)-N-(1-methylazetidin-3-yl)pyrazolo[1,5-a]pyrimidine-5-carboxamide] | 54 nM | 5.9 nM | > 1000 nM | 346 nM
2 | Cc1cc(-c2c(-c3cccc(C#N)c3)nn3ccc(NC(=O)[C@](C)(O)C(F)(F)F)nc23)cc(C)n1 [Example 94.3, (2S)—N-[2-(3-Cyanophenyl)-3-(2,6-dimethyl-4-pyridyl)pyrazolo[1,5-a]pyrimidin-5-yl]-3,3,3-trifluoro-2-hydroxy-2-methyl-propanamide] | 15 nM | 2 nM | > 1000 nM | 184 nM
3 | Cc1cc(-c2c(-c3cccc(C#N)c3)nn3ccc(N)nc23)cc(C)[n+]1[O-] [Example 27, 3-[5-Amino-3-(2,6-dimethyl-1-oxido-pyridin-1-ium-4-yl)pyrazolo[1,5-a]pyrimidin-2-yl]benzonitrile] | 2 nM | 1.8 nM | > 1000 nM | 4 nM
4 | CCn1nccc1-c1c(-c2cccc(C#N)c2)nn2ccc(N3CCN(C)C(CO)C3)nc12 (stereo not drawn) [Example 33.1] | 62 nM | 14.9 nM | > 1000 nM | 184 nM
5 | c1coc(-c2cc3nc(NCc4nccs4)ccn3n2)c1 [Example 74, 2-(2-Furyl)-N-(thiazol-2-ylmethyl)pyrazolo[1,5-a]pyrimidin-5-amine] | 6240 nM | 587 nM | 160 nM | 649 nM
6 | Cc1cc(-c2c(-c3cccc(C#N)c3)nn3ccc(N4CCN(S(N)(=O)=O)CC4)nc23)cc(Cl)n1 [Example 2.37] | 9 nM | 26.5 nM | > 1000 nM | 1410 nM
7 | CO[C@H]1CN(C)C[C@@H]1Nc1ccn2nc(-c3cccc(C#N)c3)c(-c3cc(C)nc(Cl)c3)c2n1 [Example 2.5] | 1 nM | 0.9 nM | > 1000 nM | 24 nM
8 | Cc1cc(-c2c(-c3cccc(C#N)c3)nn3ccc(C(=O)N4CCC5(CC4)NC(=O)NC5=O)nc23)cc(C)n1 [Example 92.7] | 3 nM | 27.6 nM | > 1000 nM | 158 nM
9 | Cc1cc(-c2c(-c3cccc(C#N)c3)nn3ccc(N[C@@H](C)[C@H](O)CO)nc23)cc(Cl)n1 [Example 4.9, 3-[3-(2-Chloro-6-methyl-4-pyridyl)-5-[[(1S,2S)-2,3-dihydroxy-1-methyl-propyl]amino]pyrazolo[1,5-a]pyrimidin-2-yl]benzonitrile] | 12 nM | 1.1 nM | > 1000 nM | 5 nM
10 | Cn1cc(-c2c(-c3cccc(C#N)c3)nn3ccc(N)nc23)cn1 [Example 26.5, 3-[5-Amino-3-(1-methylpyrazol-4-yl)pyrazolo[1,5-a]pyrimidin-2-yl]benzonitrile] | 1200 nM | 105 nM | 749 nM | 89 nM
11 | N#Cc1c(-c2ccco2)nn2ccc(N3CCNCC3)nc12 [Example 41, 2-(2-Furyl)-5-piperazin-1-yl-pyrazolo[1,5-a]pyrimidine-3-carbonitrile] | 2230 nM | 237 nM | 5140 nM | 1570 nM
12 | N#Cc1c(-c2ccco2)nn2ccc(NC[C@@H]3CNCCO3)nc12 [Example 42, 2-(2-Furyl)-5-[[(2S)-morpholin-2-yl]methylamino]pyrazolo[1,5-a]pyrimidine-3-carbonitrile hydrochloride] | 3060 nM | 345 nM | > 1000 nM | 313 nM
13 | Cc1cc(-c2c(-c3cccc(C#N)c3)nn3ccc(N4CCN(C)C(CO)C4)nc23)cc(Cl)n1 (stereo not drawn) [Example 2.7] | 57 nM | 1.3 nM | > 1000 nM | 76 nM
14 | CC(C)(C)OC(=O)N1CCO[C@H](CNc2ccn3nc(-c4ccco4)c(C#N)c3n2)C1 [Example 37.5] | 1100 nM | 33.2 nM | 1740 nM | 133 nM
15 | Cc1cc(-c2c(-c3cccc(C#N)c3)nn3ccc(N)nc23)cc(C(N)=O)n1 [Example 27.2, 4-[5-Amino-2-(3-cyanophenyl)pyrazolo[1,5-a]pyrimidin-3-yl]-6-methyl-pyridine-2-carboxamide] | 39 nM | 13.3 nM | > 1000 nM | 17 nM
16 | Cc1cc(-c2c(-c3cccc(C#N)c3)nn3ccc(C(=O)N[C@H]4CNC[C@@H]4O)nc23)cc(Cl)n1 [Example 7.5, 3-(2-Chloro-6-methyl-4-pyridyl)-2-(3-cyanophenyl)-N-[trans-(3S,4S)-4-hydroxypyrrolidin-3-yl]pyrazolo[1,5-a]pyrimidine-5-carboxamide] | 5 nM | 5.5 nM | > 1000 nM | 612 nM
17 | Cc1cc(-c2c(-c3cccc(C#N)c3)nn3ccc(C(=O)N[C@H](C)CO)nc23)cc(Cl)n1 [Example 6.6, 3-(2-Chloro-6-methyl-4-pyridyl)-2-(3-cyanophenyl)-N-[(1R)-2-hydroxy-1-methyl-ethyl]pyrazolo[1,5-a]pyrimidine-5-carboxamide] | 35 nM | 0.9 nM | > 1000 nM | 390 nM
18 | Cc1cc(-c2c(-c3cccc(C#N)c3)nn3ccc(NC4CCN(C)C(=O)C4)nc23)cc(C)n1 (stereo not drawn) [Example 105.2, 3-[3-(2,6-Dimethyl-4-pyridyl)-5-[(1-methyl-2-oxo-4-piperidyl)amino]pyrazolo[1,5-a]pyrimidin-2-yl]benzonitrile] | 18 nM | 1.7 nM | > 1000 nM | 35 nM
19 | Cc1cccnc1CN1CCN(c2ccn3nc(-c4cccc(F)c4)c(C#N)c3n2)CC1 [Example 60, 2-(3-Fluorophenyl)-5-[4-[(3-methyl-2-pyridyl)methyl]piperazin-1-yl]pyrazolo[1,5-a]pyrimidine-3-carbonitrile] | 4600 nM | 33.9 nM | 1000 nM | 27 nM
20 | CC(=O)Nc1cc(-c2c(-c3cccc(C#N)c3)nn3ccc(N)nc23)cc(C)n1 [Example 27.4, N-[4-[5-Amino-2-(3-cyanophenyl)pyrazolo[1,5-a]pyrimidin-3-yl]-6-methyl-2-pyridyl]acetamide] | 519 nM | 54.1 nM | > 1000 nM | 583 nM
21 | C=C(C)[C@H](C)NC(=O)c1ccn2nc(-c3cccc(C#N)c3)c(-c3cc(C)nc(C)c3)c2n1 [Example 99, 2-(3-Cyanophenyl)-N-[(1S)-1,2-dimethylallyl]-3-(2,6-dimethyl-4-pyridyl)pyrazolo[1,5-a]pyrimidine-5-carboxamide] | 35 nM | 0.4 nM | > 1000 nM | 99 nM
22 | CCn1nccc1-c1c(-c2cccc(C#N)c2)nn2ccc(N3CC4CCC(C3)O4)nc12 [Example 33.2] | 159 nM | 15.2 nM | > 1000 nM | 126 nM
23 | Cc1cc(-c2c(-c3cccc(C#N)c3)nn3ccc(C(=O)N[C@H]4C[C@](C)(O)C4)nc23)cc(C)n1 [Example 92.20] | 37 nM | 1.2 nM | > 1000 nM | 301 nM
24 | Cc1cc(-c2c(-c3cccc(C#N)c3)nn3ccc(C(=O)NCC4(O)CCNC4)nc23)cc(Cl)n1 (stereo not drawn) [Example 7.6, 3-(2-Chloro-6-methyl-4-pyridyl)-2-(3-cyanophenyl)-N-[(3-hydroxypyrrolidin-3-yl)methyl]pyrazolo[1,5-a]pyrimidine-5-carboxamide] | 13 nM | 6.8 nM | > 1000 nM | 672 nM
25 | Cc1cc(-c2c(-c3cccc(C#N)c3)nn3ccc(C(=O)NCC4CNC(=O)CO4)nc23)cc(C)n1 (stereo not drawn) [Example 92.5] | 17 nM | 9.2 nM | > 1000 nM | 438 nM
26 | Cc1cc(-c2c(-c3cccc(C#N)c3)nn3ccc(C(=O)N[C@H]4COC[C@@H]4O)nc23)cc(C)n1 [Example 92.29] | 34 nM | 1.9 nM | > 1000 nM | 412 nM
27 | CCn1nccc1-c1c(-c2cccc(C#N)c2)nn2ccc(N3CC4CCC(C3)N4C)nc12 [Example 33.3] | 710 nM | 28.6 nM | > 1000 nM | 67 nM
